US20260083722A1, “BIFUNCTIONAL DEGRADERS COMPRISING ELECTROPHILIC PROTACS THAT ENGAGE DCAF1 AND PHARMACEUTICAL COMPOSITIONS COMPRISING THE SAME” (THE SCRIPPS RESEARCH INSTITUTE, priority 2022, published 2026)

Tests used:
[1] = molecular target: T1, recombinant DCAF1-WT (a.a.'s 1046-1396) (Homo sapiens, UniProt Q9Y4B6); assay: gel-ABPP with recombinant purified DCAF1-WT doped into HEK293T cell proteome; assay type: binding; conditions: for inhibition of MY-11B probe reactivity with recombinant DCAF1: 2 h, then MY-11B 25 μM 1 h, YT41S and YT47S at single concentration 100 μM; for plateau of blockade of MY-11B labeling: at 20 µM test concentrations; for gel-shift of recombinant DCAF1 by Coomassie blue staining: in the presence of compound
T1 construct: form of DCAF1 containing the WD40 domain (amino acids (a.a.'s) 1046-1396); made in house
T1 sequence (Q9Y4B6 1046-1396): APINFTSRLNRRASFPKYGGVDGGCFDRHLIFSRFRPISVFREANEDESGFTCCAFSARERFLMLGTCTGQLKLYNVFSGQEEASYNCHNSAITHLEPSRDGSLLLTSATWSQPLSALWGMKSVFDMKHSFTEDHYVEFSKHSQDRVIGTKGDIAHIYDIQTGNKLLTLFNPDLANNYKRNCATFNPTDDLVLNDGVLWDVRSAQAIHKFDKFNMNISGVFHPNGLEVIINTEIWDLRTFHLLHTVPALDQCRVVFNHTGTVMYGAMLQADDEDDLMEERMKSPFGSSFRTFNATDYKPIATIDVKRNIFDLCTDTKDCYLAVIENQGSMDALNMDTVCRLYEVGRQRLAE
T1 sequence (Q16531 whole entry partner, the tested form may be a part): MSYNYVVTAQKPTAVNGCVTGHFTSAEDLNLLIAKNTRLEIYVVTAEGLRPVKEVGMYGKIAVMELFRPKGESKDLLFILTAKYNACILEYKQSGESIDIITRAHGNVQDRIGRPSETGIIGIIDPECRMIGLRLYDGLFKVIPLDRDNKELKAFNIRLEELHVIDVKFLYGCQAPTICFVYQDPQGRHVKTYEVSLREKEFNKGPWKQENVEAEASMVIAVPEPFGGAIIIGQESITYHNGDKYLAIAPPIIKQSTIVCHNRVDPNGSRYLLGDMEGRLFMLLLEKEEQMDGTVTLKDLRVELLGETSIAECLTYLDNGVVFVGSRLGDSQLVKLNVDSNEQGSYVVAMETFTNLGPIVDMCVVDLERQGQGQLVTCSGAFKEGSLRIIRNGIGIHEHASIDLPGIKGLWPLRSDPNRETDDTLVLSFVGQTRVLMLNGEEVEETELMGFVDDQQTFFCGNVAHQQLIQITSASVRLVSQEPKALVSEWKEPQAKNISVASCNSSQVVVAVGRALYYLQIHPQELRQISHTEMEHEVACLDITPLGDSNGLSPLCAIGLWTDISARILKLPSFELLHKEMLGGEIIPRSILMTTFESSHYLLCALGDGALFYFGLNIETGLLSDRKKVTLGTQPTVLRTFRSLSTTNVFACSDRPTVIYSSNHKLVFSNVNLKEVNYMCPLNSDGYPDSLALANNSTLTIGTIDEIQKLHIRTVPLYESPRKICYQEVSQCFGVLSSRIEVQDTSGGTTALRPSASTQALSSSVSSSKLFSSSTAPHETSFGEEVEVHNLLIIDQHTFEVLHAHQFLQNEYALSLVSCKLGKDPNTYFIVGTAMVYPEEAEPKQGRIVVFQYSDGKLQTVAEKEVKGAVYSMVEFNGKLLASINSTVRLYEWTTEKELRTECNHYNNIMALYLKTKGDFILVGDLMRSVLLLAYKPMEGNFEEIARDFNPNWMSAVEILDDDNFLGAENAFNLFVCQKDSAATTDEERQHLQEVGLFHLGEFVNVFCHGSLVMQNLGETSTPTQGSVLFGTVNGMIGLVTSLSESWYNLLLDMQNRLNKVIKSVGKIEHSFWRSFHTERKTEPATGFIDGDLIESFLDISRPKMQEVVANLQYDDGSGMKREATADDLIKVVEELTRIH
From the text: FIG. 2 that azetidine acrylamides stereo- and site-selectively engage recombinant DCAF1_C1113. (A) Domain map of DCAF1 with the region used for recombinant protein studies marked in a bracket (a.a.'s 1046-1396) and C1113 highlighted in red. (B) Crystal structure of a DCAF1-Vpx complex (pdb: 5AJA). DCAF1 (a.a.'s 1046-1396) is shown in cyan, Vpx is shown in yellow, and C1113, which is located at the DCAF1-Vpx interface is shown in red. (C) Structures of alkyne-modified azetidine acrylamides MY-11A (5) and MY-11B (6). (D) Gel-ABPP showing the concentration-dependent reactivity of MY-11A and MY-11B (1 h) reactivity with recombinant, purified DCAF1-WT or the DCAF1-C1113A mutant (0.06 μg/μL of DCAF1 protein per sample) doped into HEK293T cell proteome (1 μg/μL). MY-11A/B labeling of proteins was visualized by CuAAC conjugation to an azide-rhodamine tag followed by SDS-PAGE and in-gel fluorescence scanning. Results are from a single experiment representative of two independent experiments. (E) Gel-ABPP showing the concentration-dependent effects of MY-1A and MY-1B on MY-11B reactivity with DCAF1-WT. Samples were treated with MY-1A/B for 2 h, followed by MY-11B (25 μM, 1 h) and analyzed as described in (D). Left, quantification of data presented as mean values±SEM from two independent experiments. Right, representative gel-ABPP results. (D, E) Lower images are Coomassie blue-stained gels corresponding to ABPP gels shown in upper images.
(A) Structures of candidate electrophilic PROTACs YT41R (7), YT41S (8), YT47R (9), and YT47S (10). (B) Gel-ABPP showing the concentration-dependent effects of YT41R and YT47R on MY-11B reactivity with DCAF1-WT protein (0.06 μg/μL of DCAF1 protein per sample) doped into HEK293T cell proteome (1 μg/μL). Also shown are the effects of YT41S and YT47S tested at a single concentration (100 μM). Samples were treated with heterobifunctional compounds for 2 h, followed by MY-11B (25 μM, 1 h) and analyzed as described in FIG. 2D. Left, representative gel-ABPP results. Lower image is Coomassie blue-stained gel corresponding to ABPP gel shown in upper image. Right, quantification of data presented as mean values±SEM from two independent experiments.
DCAF1 is a multi-domain substrate receptor for CRL4 ligases (FIG. 2A) that has diverse physiological and disease functions, including being co-opted by the HIV-2 virus to promote degradation of the antiviral host protein SAMHD1^27-28. […] We verified the stereo- and site-selective engagement of DCAF1_C1113 by azetidine acrylamides using alkynylated analogues of MY-1A and MY-1B (MY-11A (5) and MY-11B (6), respectively; FIG. 2C). For these experiments, we doped into HEK293T cell lysates a recombinantly expressed and purified form of DCAF1 containing the WD40 domain (amino acids (a.a.'s) 1046-1396), in complex with the CRL4 adaptor protein DDB1^31, and exposed these samples to varying concentrations of MY-11A or MY-11B. After 1 h, we assessed MY-11A and MY-11B engagement of DCAF1 by copper-catalyzed azide-alkyne cycloaddition (CuAAC)^32 with an azide-rhodamine reporter tag followed by SDS-PAGE and in-gel fluorescence scanning^33. […] We used gel-ABPP to quantify an in vitro target engagement value (TE50) of approximately 25 μM (95% C.I.=13-38 μM) for MY-1B labeling of DCAF1 (FIG. 2E, left).

[2] = molecular target: T2, C1113 of recombinantly expressed DCAF1 (Homo sapiens, UniProt Q9Y4B6); assay: MS-ABPP in FLAG-DCAF1-WT-expressing HEK293T cells; assay type: cell-based; conditions: 5 μM, 3 h
T2 construct: expressed in transfected cells; host or cells: HEK293T
T2 sequence (Q9Y4B6 whole entry): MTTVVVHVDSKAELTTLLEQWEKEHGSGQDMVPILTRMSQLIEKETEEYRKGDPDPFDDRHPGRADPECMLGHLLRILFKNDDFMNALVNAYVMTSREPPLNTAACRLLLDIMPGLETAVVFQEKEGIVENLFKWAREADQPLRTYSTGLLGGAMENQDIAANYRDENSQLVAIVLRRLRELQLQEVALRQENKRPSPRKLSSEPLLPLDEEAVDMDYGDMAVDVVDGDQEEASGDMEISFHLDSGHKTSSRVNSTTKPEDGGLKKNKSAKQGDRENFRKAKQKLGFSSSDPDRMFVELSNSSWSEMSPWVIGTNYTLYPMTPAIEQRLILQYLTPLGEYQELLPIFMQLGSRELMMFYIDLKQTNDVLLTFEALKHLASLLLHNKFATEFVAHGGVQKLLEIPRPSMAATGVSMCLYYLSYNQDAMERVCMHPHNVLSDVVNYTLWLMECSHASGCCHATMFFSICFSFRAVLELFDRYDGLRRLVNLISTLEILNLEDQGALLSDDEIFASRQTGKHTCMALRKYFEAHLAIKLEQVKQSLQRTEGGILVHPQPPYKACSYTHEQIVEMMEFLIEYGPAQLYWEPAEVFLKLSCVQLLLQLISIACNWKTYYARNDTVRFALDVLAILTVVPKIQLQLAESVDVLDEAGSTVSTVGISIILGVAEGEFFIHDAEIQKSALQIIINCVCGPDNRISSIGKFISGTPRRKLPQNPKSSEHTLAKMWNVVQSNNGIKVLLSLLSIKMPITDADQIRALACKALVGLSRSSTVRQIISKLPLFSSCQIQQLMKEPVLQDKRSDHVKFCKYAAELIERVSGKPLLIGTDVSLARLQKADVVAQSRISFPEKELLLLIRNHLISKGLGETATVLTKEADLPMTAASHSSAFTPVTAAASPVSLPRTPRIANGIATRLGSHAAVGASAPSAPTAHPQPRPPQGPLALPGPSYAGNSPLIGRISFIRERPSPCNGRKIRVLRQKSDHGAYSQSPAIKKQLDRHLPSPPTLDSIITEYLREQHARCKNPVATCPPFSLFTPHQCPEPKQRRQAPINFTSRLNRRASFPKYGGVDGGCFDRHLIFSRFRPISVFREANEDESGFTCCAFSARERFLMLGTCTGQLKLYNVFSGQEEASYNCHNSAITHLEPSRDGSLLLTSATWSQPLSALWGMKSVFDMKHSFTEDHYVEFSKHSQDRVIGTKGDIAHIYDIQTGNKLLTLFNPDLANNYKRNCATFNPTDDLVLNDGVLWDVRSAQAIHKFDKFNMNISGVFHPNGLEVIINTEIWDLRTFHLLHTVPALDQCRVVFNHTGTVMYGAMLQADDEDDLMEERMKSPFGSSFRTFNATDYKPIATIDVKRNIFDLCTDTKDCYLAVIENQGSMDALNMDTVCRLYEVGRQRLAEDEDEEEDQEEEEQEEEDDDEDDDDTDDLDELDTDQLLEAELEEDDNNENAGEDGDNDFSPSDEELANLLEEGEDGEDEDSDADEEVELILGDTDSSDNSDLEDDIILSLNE
Method: (A) Left, western blots showing effects of YT47R and YT47S on the immunoprecipitation (IP) of FLAG-DCAF1-WT or FLAG-DCAF1-C1113A with HA-FKBP12 in HEK293T cells co-expressing these proteins. Cells were treated with YT47R or YT47S (5 μM) for 2 h in the presence of MG132 (10 μM) prior to lysis and IP with an anti-HA antibody and western blotting for the indicated proteins (DCAF1, FKBP12, and ubiquitinated protein). Right, bar graphs quantifying DCAF1 (top) and ubiquitination (Ub) (bottom) in the indicated IP groups. (B) Left, western blots showing effects of YT47R and YT47S on the IP of endogenous DCAF1 with HA-FKBP12 in HEK293T cells expressing HA-FKBP12. […] Right, bar graph quantifying DCAF1 in the indicated IP groups. […] Statistical significance was calculated with unpaired two-tailed Student's t-tests comparing YT41R/YT47R- and DMSO-treated cells. **P<0.01, ****P<0.0001. (C) MS-ABPP quantification of IA-DTB labeling of the indicated cysteines in DCAF1 from FLAG-DCAF1-WT-expressing HEK293T cells treated with the indicated concentrations of YT47R (3 h) relative to cells treated with DMSO. […] Statistical significance was calculated with unpaired two-tailed Student's t-tests comparing compound to DMSO treated cells. *P<0.1. […]

[3] = tested on: ternary complex of FKBP12 and DCAF1; assay: co-immunoprecipitation of DCAF1 with HA-FKBP12 in HEK293T cells (ternary complex); assay type: cell-based; conditions: 5 μM, 2 h
Method: (A) Left, western blots showing effects of YT47R and YT47S on the immunoprecipitation (IP) of FLAG-DCAF1-WT or FLAG-DCAF1-C1113A with HA-FKBP12 in HEK293T cells co-expressing these proteins. Cells were treated with YT47R or YT47S (5 μM) for 2 h in the presence of MG132 (10 μM) prior to lysis and IP with an anti-HA antibody and western blotting for the indicated proteins (DCAF1, FKBP12, and ubiquitinated protein). Right, bar graphs quantifying DCAF1 (top) and ubiquitination (Ub) (bottom) in the indicated IP groups. (B) Left, western blots showing effects of YT47R and YT47S on the IP of endogenous DCAF1 with HA-FKBP12 in HEK293T cells expressing HA-FKBP12. Cells were treated with YT47R or YT47S (5 μM) for 2 h in the presence of MG132 (10 μM) prior to lysis and IP with an anti-HA antibody and western blotting for the indicated proteins (DCAF1, FKBP12). Right, bar graph quantifying DCAF1 in the indicated IP groups. For (A, B), data are mean values±SEM for three independent experiments. Statistical significance was calculated with unpaired two-tailed Student's t-tests comparing YT41R/YT47R- and DMSO-treated cells. **P<0.01, ****P<0.0001. (C) MS-ABPP quantification of IA-DTB labeling of the indicated cysteines in DCAF1 from FLAG-DCAF1-WT-expressing HEK293T cells treated with the indicated concentrations of YT47R (3 h) relative to cells treated with DMSO. Data represent average values±SEM from four independent experiments. Statistical significance was calculated with unpaired two-tailed Student's t-tests comparing compound to DMSO treated cells. *P<0.1.
Finally, we investigated whether electrophilic PROTACs induce a stable ternary complex of FKBP12 with DCAF1 and promote FKBP12 ubiquitination. […] A ternary complex was not observed in cells expressing the DCAF1-C1113A mutant (FIG. 6A), supporting that YT47R induces this complex through site-specifically reacting with C1113. […] In considering possible reasons why this ternary complex formation with endogenous DCAF1 was insufficient to support the degradation of recombinantly expressed FKBP12 (FIG. 4A), we speculate that our current PROTACs (YT41R, YT47R) may require further improvements in cellular properties to enable robust targeted protein degradation mediated by physiological concentrations of DCAF1.

Row | SMILES | inhibition of MY-11B probe reactivity with recombinant DCAF1 [1] | plateau of blockade of MY-11B labeling [1] [%] | gel-shift of recombinant DCAF1 by Coomassie blue staining [1] | engagement of C1113 of recombinantly expressed DCAF1 [2] [%] | ternary complex of FKBP12 and DCAF1 ([3]; FLAG-DCAF1-WT, in the presence of MG132 (10 μM)) | ternary complex of endogenous DCAF1 with HA-FKBP12 ([3]; HEK293T expressing HA-FKBP12 only, MG132, compared to YT47S or DMSO) | ternary complex of FKBP12 and DCAF1 ([3]; cells expressing the DCAF1-C1113A mutant, MG132)
1 | C=CC(=O)C1C[C@H](c2ccc(C(=O)NCCOCCOCCNC(=O)COc3cccc([C@@H](CCc4ccc(OC)c(OC)c4)OC(=O)[C@@H]4CCCCN4C(=O)C(=O)C(C)(C)CC)c3)cc2)[C@@H]1C(=O)Nc1cccc2cccnc12 (stereo partly shown) [YT41R] | concentration-dependent inhibition | ~75 | apparent gel-shift | – | – | – | –
2 | C=CC(=O)N1C[C@H](c2ccc(C(=O)NCCOCCOCCOCCNC(=O)COc3cccc([C@@H](CCc4ccc(OC)c(OC)c4)OC(=O)[C@@H]4CCCCN4C(=O)C(=O)C(C)(C)CC)c3)cc2)[C@@H]1C(=O)Nc1cccc2cccnc12 [YT47R] | concentration-dependent inhibition | ~75 | apparent gel-shift | ~20 | clear evidence of a ternary complex | more robust ternary complex | not observed
